Results as given in US9630961B2, “Arginine methyltransferase inhibitors and uses thereof” (Epizyme, Inc., priority 2013, dated 2017).

Assays:
[1] = tested on: mono-methyl arginine in RKO cells; test: RKO Methylation Assay, In Cell Western for mono-methyl arginine and DNA content; format: cell-based; conditions: Homo sapiens, 72 hours, percent activation of mono-methyl arginine signal
Text: RKO Methylation Assay RKO adherent cells were purchased from ATCC (American Type Culture Collection), Manassas, Va., USA. DMEM/Glutamax medium, penicillin-streptomycin, heat inactivated fetal bovine serum, 0.05% trypsin and D-PBS were purchased from Life Technologies, Grand Island, N.Y., USA. Odyssey blocking buffer, 800CW goat anti-rabbit IgG (H+L) antibody, and Licor Odyssey infrared scanner were purchased from Licor Biosciences, Lincoln, Nebr., USA. Mono-methyl arginine antibody was purchased from Cell Signaling Technology, Danvers, Mass., USA. Methanol was purchased from VWR, Franklin, Mass., USA. 10% Tween 20 was purchased from KPL, Inc., Gaithersburg, Md., USA. DRAQ5 was purchased from Biostatus Limited, Leicestershire, UK. RKO adherent cells were maintained in growth medium (DMEM/Glutamax medium supplemented with 10% v/v heat inactivated fetal bovine serum and 100 units/mL penicillin-streptomycin) and cultured at 37° C. under 5% CO2. Cell Treatment, in Cell Western (ICW) for Detection of Mono-Methyl Arginine and DNA Content. RKO cells were seeded in assay medium at a concentration of 20,000 cells per mL to a poly-D-lysine coated 384 well culture plate (BD Biosciences 356697) with 50 μL per well. Compound (100 nL) from a 96-well source plate was added directly to 384 well cell plate. Plates were incubated at 37° C., 5% CO2 for 72 hours. After three days of incubation, plates were brought to room temperature outside of the incubator for ten minutes and blotted on paper towels to remove cell media. 50 μL of ice cold 100% methanol was added directly to each well and incubated for 30 min at room temperature. After 30 min, plates were transferred to a Biotek EL406 plate washer and washed 2 times with 100 μL per well of wash buffer (IX PBS). Next 60 μL per well of Odyssey blocking buffer (Odyssey Buffer with 0.1% Tween 20 (v/v)) were added to each plate and incubated 1 hour at room temperature. Blocking buffer was removed and 20 μL per well of primary antibody was added (mono-methyl arginine diluted 1:200 in Odyssey buffer with 0.1% Tween 20 (v/v)) and plates were incubated overnight (16 hours) at 4° C. Plates were washed 5 times with 100 μL per well of wash buffer. Next 20 μL per well of secondary antibody was added (1:200 800CW goat anti-rabbit IgG (H+L) antibody, 1:1000 DRAQ5 (Biostatus limited) in Odyssey buffer with 0.1% Tween 20 (v/v)) and incubated for 1 hour at room temperature. The plates were washed 5 times with 100 μL per well wash buffer then 2 times with 100 μL per well of water. Plates were allowed to dry at room temperature then imaged on the Licor Odyssey machine which measures integrated intensity at 700 nm and 800 nm wavelengths. Both 700 and 800 channels were scanned. Calculations: First, the ratio for each well was determined by: Each plate included fourteen control wells of DMSO only treatment (minimum activation) as well as fourteen control wells for maximum activation treated with 20 μM of a reference compound. The average of the ratio values for each control type was calculated and used to determine the percent activation for each test well in the plate. Reference compound was serially diluted three-fold in DMSO for a total of nine test concentrations, beginning at 20 μM. Percent activation was determined and EC30 curves were generated using triplicate wells per concentration of compound.

PRMT6 = molecular target: T1, PRMT6 (Homo sapiens, UniProt Q96LA8); test: PRMT6 Biochemical Assay (3H-SAM Flashplate, peptide substrate); conditions: 30 min preincubation, room temperature
T1 construct: Flag-PRMT6-His; made in house; host or cells: HEK 293F cells (BacMam virus)
Text: S-adenosylmethionine (SAM), S-adenosylhomocysteine (SAH), bicine, Tween20, dimethylsulfoxide (DMSO), bovine skin gelatin (BSG), sodium butyrate and Tris(2-carboxyethyl)phosphine hydrochloride solution (TCEP) were purchased from Sigma-Aldrich at the highest level of purity possible. ^3H-SAM was purchase from American Radiolabeled Chemicals with a specific activity of 80 Ci/mmol. 384-well streptavidin Flashplates were purchased from PerkinElmer.
Peptide representative of human histone H4 residues 36-50 was synthesized with an N-terminal linker-affinity tag motif and a C-terminal amide cap by 21st Century Biochemicals. The peptide was purified by high-performance liquid chromatography (HPLC) to greater than 95% purity and confirmed by liquid chromatography mass spectrometry (LC-MS). The sequence was Biot-Ahx-[…]-amide and contained a monomethylated lysine at position 44 (SEQ ID NO.:5).
Full-length human PRMT6 (NM_018137.2) transcript clone was amplified from an HEK 293 cDNA library, incorporating a flanking 5′ sequence encoding a FLAG tag ([…]) (SEQ ID NO.:6) fused directly to Ser 2 of PRMT6 and a 3′ sequence encoding a hexa His sequence (HHHHHH) fused directly to Asp 375. The amplified gene was subcloned into pFastBacMam (Viva Biotech).
Recombinant baculovirus were generated according to Bac-to-Bac kit instructions (Life Technologies). […] Infections were carried out at 37° C. for 48 hours, harvested by centrifugation, and stored at −80° C. for purification.
Column was washed with 20 mM imidazole in the same buffer and Flag-PRMT6-His was eluted with 150 mM imidazole. Pooled fractions were dialysed against buffer Ni-A and further purified by anti-flag M2 affinity chromatography. Flag-PRMT6-His was eluted with 200 ug/ml FLAG peptide in the same buffer. Pooled fractions were dialysed in 20 mM Tris, 150 mM NaCl, 10% glycerol and 5 mM β-mercaptoethanol, pH 7.8. The purity of recovered protein was 95%.
General Procedure for PRMT6 Enzyme Assays on Peptide Substrates.
The assays were all performed in a buffer consisting of 20 mM Bicine (pH=7.6), 1 mM TCEP, 0.005% BSG, and 0.002% Tween 20, prepared on the day of use. Compounds in 100% DMSO (1 ul) were spotted into a polypropylene 384-well V-bottom plates (Greiner) using a Platemate Plus outfitted with a 384-channel head (Thermo Scientific). DMSO (1 ul) was added to Columns 11, 12, 23, 24, rows A-H for the maximum signal control and 1 ul of SAH, a known product and inhibitor of PRMT6, was added to columns 11, 12, 23, 24, rows I-P for the minimum signal control. A cocktail (40 ul) containing the PRMT6 enzyme was added by Multidrop Combi (Thermo-Fisher). The compounds were allowed to incubate with PRMT6 for 30 min at room temperature, then a cocktail (10 ul) containing SAM and peptide was added to initiate the reaction (final volume=51 ul). The final concentrations of the components were as follows: PRMT6 was 1 nM, ^3H-SAM was 200 nM, non-radiolabeled SAM was 250 nM, peptide was 75 nM, SAH in the minimum signal control wells was 1 mM, and the DMSO concentration was 2%. The assays were stopped by the addition of non-radiolabeled SAM (10 ul) to a final concentration of 400 uM, which dilutes the ^3H-SAM to a level where its incorporation into the peptide substrate is no longer detectable. 50 ul of the reaction in the 384-well polypropylene plate was then transferred to a 384-well Flashplate and the biotinylated peptides were allowed to bind to the streptavidin surface for at least 1 hour before being washed once with 0.1% Tween20 in a Biotek ELx405 plate washer. The plates were then read in a PerkinElmer TopCount plate reader to measure the quantity of ^3H-labeled peptide bound to the Flashplate surface, measured as disintegrations per minute (dpm) or alternatively, referred to as counts per minute (cpm).
Where dpm=disintegrations per minute, cmpd=signal in assay well, and min and max are the respective minimum and maximum signal controls. […]

T1 sequence (Q96LA8 with tags, fused parts or gaps): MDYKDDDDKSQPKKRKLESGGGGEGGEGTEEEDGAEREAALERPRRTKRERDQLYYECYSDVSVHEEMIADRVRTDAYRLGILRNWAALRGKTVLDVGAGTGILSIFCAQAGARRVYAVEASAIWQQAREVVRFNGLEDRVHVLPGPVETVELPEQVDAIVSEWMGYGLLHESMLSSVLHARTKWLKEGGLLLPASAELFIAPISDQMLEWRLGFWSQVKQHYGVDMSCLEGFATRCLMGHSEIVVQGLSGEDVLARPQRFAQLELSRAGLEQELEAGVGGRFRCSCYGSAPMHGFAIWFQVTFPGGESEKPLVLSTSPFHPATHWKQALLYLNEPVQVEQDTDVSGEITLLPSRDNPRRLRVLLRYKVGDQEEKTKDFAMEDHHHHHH

- IC50 (PRMT6): ≥ 10 µM
SMILES: Cc1nn(C)c(C)c1-c1n[nH]cc1CN(C)CCN [Compound 26]
- EC30 [1]: ≥ 12 µM
